Active and inactive are the calls of the source. The rule behind the calls is not given here. Some results are limits rather than exact numbers.

The values that follow come from ChEMBL document CHEMBL4130574, “Discovery of novel 2,4-diarylaminopyrimidine analogues as ALK and ROS1 dual inhibitors to overcome crizotinib-resistant mutants including G1202R” (Eur J Med Chem, 2018).

The test system of test [1] is KARPAS-299. As to the kind of experiment: Antiproliferative activity against human KARPAS299 cells harboring NPM-ALK after 72 hrs by MTT assay. Format: functional, cell-based. The conditions noted are these: KARPAS-299, 72 h.
For test [2], the system named is HCC78. Put plainly: Antiproliferative activity against human HCC78 cells harboring SLC34A2-ROS1 after 72 hrs by MTT assay. Format: functional, cell-based. The conditions noted are these: HCC78, 72 h.
Test [3] addresses T1, ALK tyrosine kinase receptor (Homo sapiens, UniProt Q9UM73).
Description: Inhibition of recombinant human N-terminal GST-tagged ALK cytoplasmic domain (1058 to 1620 residues) expressed in baculovirus expression system using peptide substrate after 1 hr by mobility shift assay
The target in test [4] is T2, Proto-oncogene tyrosine-protein kinase ROS (Homo sapiens, UniProt P08922). Put plainly: Inhibition of recombinant human N-terminal GST-tagged ROS1 cytoplasmic domain (1883 to 2347 residues) expressed in baculovirus expression system using peptide substrate after 1 hr by mobility shift assay.
The target in test [5] is Hepatocyte growth factor receptor (Homo sapiens, UniProt P08581). As to the kind of experiment: Inhibition of recombinant human N-terminal GST-tagged c-MET cytoplasmic domain (956 to 1390 residues) expressed in baculovirus expression system using peptide substrate after 1 hr by mobility shift assay.
The target in test [6] is ALK tyrosine kinase receptor (Homo sapiens, UniProt Q9UM73, L1196M).
The target of test [7] is ALK tyrosine kinase receptor (Homo sapiens, UniProt Q9UM73, C1156Y).
The target in test [8] is ALK tyrosine kinase receptor (Homo sapiens, UniProt Q9UM73, T1151INS).
Test [9] has as its system ALK tyrosine kinase receptor (Homo sapiens), Q9UM73 [L1196M].
Test [10] has as its system ALK tyrosine kinase receptor (Homo sapiens), Q9UM73 [G1202R].
Test [11] has as its system KARPAS-299. Put plainly: Induction of apoptosis in human KARPAS299 cells harboring NPM-ALK after 24 hrs by acridine orange/ethidium bromide staining based fluorescence microscopic method. Format: functional, cell-based.
In test [12] the test system is HCC78. Put plainly: Induction of apoptosis in human HCC78 cells harboring SLC34A2-ROS1 after 24 hrs by acridine orange/ethidium bromide staining based fluorescence microscopic method. Format: functional, cell-based.
The target in test [13] is T1, ALK tyrosine kinase receptor. As to the kind of experiment: Inhibition of ALK phosphorylation in human KARPAS299 cells after 6 hrs by Western blot method. Format: cell-based.
The test system of test [14] is KARPAS-299. Put plainly: Downregulation of ALK protein expression in human KARPAS299 cells after 6 hrs by Western blot method. Format: functional, cell-based.
In test [15] the test system is HCC78. Put plainly: Downregulation of ROS1 protein expression in human HCC78 cells at 100 nM after 6 hrs by Western blot method. Format: functional, cell-based.
The target in test [16] is T2, Proto-oncogene tyrosine-protein kinase ROS. As to the kind of experiment: Inhibition of ROS1 phosphorylation in human HCC78 cells at 100 nM after 6 hrs by Western blot method. Format: cell-based.
Test [17] addresses Epidermal growth factor receptor (Homo sapiens, UniProt P00533).
Description: Inhibition of recombinant human N-terminal GST-tagged EGFR cytoplasmic domain (669 to 1210 residues) expressed in baculovirus expression system using peptide substrate after 1 hr by mobility shift assay
The target in test [18] is ALK tyrosine kinase receptor (Homo sapiens, UniProt Q9UM73, G1269A).
Test [19] has as its target ALK tyrosine kinase receptor (Homo sapiens, UniProt Q9UM73, G1202R).
Test [20] concerns the target ALK tyrosine kinase receptor (Homo sapiens, UniProt Q9UM73, S1206Y).
A further test deals with NCI-H2228. As to the kind of experiment: cells. To be noted: Homo sapiens, NCI-H2228, 72 h.
A further test relates to A549. As to the kind of experiment: cells. To be noted: Homo sapiens, A549, 72 h.
The test system of the next test is NCI-H460. As to the kind of experiment: cells. The conditions noted are these: Homo sapiens, NCI-H460, 72 h.
Test [21] is described as follows: Selectivity ratio of IC50 for human HCC78 cells harboring SLC34A2-ROS1 to IC50 for human KARPAS299 cells harboring NPM-ALK. Format: functional.
Test [22] can be described thus: Selectivity ratio of IC50 for human HCC78 cells harboring SLC34A2-ROS1 to IC50 for human NCI-H2228 cells harboring EML4-ALK. Format: functional.

T2 sequence (P08922 whole entry, the tested form may be a part): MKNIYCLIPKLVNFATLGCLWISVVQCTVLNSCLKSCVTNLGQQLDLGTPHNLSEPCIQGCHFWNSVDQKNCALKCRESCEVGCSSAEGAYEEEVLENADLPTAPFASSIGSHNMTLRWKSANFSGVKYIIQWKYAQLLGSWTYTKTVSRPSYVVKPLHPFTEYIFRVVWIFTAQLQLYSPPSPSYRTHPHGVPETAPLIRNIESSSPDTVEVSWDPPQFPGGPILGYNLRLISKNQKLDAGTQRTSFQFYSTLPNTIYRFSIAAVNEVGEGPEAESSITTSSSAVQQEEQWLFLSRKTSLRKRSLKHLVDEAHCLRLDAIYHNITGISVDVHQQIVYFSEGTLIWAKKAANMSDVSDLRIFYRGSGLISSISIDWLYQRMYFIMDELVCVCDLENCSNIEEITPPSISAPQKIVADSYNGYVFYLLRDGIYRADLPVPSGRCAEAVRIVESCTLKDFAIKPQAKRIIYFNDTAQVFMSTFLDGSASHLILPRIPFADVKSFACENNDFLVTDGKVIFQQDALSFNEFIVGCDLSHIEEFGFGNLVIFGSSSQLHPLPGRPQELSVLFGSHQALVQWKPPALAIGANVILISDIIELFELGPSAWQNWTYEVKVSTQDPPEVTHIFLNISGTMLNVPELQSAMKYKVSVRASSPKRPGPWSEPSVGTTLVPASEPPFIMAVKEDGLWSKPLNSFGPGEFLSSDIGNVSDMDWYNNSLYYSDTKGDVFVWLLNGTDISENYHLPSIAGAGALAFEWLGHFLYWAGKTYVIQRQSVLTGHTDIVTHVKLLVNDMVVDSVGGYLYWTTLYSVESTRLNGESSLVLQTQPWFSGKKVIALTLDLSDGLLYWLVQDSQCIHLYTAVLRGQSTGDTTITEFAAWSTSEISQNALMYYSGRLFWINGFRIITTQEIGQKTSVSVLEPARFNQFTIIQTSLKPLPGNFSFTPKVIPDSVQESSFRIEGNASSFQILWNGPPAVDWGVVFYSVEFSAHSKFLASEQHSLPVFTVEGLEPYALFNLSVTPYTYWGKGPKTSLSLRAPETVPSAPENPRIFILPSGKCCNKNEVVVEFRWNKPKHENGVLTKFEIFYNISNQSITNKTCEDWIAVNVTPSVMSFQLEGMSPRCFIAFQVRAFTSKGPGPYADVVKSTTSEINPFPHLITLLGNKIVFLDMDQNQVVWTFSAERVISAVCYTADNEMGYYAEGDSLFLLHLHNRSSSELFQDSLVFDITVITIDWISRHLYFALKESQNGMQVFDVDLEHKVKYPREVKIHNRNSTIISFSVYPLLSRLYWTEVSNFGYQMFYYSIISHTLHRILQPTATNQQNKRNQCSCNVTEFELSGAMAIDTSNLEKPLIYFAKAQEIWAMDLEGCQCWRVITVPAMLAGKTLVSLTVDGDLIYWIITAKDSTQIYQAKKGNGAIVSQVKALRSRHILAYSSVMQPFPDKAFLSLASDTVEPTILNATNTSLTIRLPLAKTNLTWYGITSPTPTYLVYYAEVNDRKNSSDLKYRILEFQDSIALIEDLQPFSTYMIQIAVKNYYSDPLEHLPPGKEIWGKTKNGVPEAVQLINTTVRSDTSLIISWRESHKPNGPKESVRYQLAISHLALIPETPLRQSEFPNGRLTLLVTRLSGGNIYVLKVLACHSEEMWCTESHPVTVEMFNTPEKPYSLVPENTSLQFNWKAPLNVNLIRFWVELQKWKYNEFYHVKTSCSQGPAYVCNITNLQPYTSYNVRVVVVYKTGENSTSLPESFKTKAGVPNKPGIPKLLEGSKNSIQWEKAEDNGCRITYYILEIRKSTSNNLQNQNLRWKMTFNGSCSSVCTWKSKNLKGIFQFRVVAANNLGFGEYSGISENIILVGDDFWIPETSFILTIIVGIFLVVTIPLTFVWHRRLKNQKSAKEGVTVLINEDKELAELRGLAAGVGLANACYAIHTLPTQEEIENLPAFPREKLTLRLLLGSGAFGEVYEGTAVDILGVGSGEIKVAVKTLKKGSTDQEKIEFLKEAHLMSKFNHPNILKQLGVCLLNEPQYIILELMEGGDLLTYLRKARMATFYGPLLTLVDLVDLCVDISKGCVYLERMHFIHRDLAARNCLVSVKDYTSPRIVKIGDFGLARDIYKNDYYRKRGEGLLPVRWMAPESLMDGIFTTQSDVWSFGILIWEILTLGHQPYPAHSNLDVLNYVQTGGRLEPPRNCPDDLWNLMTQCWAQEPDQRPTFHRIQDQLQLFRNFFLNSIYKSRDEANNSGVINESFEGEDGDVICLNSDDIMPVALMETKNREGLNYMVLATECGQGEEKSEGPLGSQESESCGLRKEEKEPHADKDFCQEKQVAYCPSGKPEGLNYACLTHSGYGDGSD
Sequence of Hepatocyte growth factor receptor (P08581 whole entry, the tested form may be a part): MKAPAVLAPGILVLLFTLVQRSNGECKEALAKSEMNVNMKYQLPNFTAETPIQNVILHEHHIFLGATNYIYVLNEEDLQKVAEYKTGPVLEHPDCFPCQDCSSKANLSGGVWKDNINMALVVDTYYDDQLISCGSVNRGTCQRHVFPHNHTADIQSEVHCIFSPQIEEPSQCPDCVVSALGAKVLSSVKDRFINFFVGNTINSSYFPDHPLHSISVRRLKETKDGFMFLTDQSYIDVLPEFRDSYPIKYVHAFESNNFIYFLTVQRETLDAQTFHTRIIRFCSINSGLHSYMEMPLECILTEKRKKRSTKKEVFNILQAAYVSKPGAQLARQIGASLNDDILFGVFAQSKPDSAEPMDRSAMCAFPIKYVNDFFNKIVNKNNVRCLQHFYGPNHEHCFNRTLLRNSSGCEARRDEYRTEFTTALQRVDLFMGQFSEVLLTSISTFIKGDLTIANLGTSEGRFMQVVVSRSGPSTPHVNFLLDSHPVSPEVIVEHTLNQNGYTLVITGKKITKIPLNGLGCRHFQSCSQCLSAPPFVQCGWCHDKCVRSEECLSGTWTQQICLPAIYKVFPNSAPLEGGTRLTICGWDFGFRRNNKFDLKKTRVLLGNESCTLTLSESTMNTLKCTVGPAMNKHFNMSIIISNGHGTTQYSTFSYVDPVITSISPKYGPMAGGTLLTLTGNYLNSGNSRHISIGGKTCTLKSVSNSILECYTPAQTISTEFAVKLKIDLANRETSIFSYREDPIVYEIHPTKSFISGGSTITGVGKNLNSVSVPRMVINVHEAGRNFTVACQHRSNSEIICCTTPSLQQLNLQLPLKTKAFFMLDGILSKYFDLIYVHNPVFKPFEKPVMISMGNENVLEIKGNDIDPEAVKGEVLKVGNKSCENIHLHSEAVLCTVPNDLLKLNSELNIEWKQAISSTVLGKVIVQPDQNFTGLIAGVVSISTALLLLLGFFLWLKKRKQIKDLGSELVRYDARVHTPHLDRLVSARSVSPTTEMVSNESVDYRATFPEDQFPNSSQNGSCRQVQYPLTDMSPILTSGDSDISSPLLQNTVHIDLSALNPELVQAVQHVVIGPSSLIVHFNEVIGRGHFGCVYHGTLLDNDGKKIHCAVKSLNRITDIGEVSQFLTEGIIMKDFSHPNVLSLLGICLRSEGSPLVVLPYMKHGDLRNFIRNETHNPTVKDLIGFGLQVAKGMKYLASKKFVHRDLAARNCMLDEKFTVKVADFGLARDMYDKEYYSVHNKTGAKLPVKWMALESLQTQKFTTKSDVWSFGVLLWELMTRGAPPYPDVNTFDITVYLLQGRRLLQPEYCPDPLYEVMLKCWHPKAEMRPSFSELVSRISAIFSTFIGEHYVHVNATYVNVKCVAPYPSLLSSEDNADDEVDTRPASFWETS
Sequence of Epidermal growth factor receptor (P00533 whole entry): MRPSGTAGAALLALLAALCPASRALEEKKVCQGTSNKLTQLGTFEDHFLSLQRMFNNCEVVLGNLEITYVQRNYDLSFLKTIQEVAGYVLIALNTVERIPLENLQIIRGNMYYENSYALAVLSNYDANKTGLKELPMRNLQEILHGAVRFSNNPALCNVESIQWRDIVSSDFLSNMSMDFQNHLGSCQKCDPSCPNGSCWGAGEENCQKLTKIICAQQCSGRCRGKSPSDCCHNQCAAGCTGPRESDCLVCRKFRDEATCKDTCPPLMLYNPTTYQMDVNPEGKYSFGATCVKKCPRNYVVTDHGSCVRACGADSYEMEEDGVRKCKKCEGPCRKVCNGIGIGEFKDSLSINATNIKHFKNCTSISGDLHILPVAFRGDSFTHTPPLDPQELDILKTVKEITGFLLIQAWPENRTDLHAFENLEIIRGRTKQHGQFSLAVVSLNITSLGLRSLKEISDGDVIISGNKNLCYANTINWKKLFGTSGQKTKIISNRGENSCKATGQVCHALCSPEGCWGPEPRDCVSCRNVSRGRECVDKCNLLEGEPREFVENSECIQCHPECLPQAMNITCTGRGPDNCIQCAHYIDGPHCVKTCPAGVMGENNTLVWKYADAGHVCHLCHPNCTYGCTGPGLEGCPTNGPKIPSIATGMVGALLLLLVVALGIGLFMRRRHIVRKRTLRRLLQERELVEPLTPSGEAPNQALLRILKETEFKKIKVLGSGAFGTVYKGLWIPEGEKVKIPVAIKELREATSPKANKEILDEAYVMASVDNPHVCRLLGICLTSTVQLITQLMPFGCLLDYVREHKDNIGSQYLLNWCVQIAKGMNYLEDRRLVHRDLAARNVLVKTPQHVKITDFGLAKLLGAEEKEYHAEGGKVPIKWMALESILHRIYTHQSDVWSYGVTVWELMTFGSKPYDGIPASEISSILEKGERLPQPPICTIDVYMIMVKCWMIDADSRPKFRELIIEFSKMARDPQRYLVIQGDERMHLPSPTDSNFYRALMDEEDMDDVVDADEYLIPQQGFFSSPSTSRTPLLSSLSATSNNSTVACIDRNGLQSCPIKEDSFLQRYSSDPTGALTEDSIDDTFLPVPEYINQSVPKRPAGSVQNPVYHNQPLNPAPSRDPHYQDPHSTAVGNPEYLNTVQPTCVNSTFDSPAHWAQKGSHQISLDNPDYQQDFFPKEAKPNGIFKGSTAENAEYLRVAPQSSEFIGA
Description for A549: Antiproliferative activity against human A549 cells harboring EGFR after 72 hrs by MTT assay
Description for NCI-H2228: Antiproliferative activity against human NCI-H2228 cells harboring EML4-ALK after 72 hrs by MTT assay
Description for NCI-H460: Antiproliferative activity against human NCI-H460 cells after 72 hrs by MTT assay

With `COc1cc(-n2cc(CN3CCN(C)CC3)nn2)ccc1Nc1ncc(Cl)c(Nc2ccccc2S(=O)(=O)C(C)C)n1`, the IC50 in the test with KARPAS-299 [1] is 21 nM; in the test on HCC78 [2] it was 40 nM; in test [3], 1.4 nM; in test [4], 1.1 nM; in test [5], more than 1000 nM; in [6], 3.1 nM. Besides, the IC50 in test [7] was 3 nM; in [8], 2.3 nM; in test [17], more than 1000 nM; in test [18], 2.8 nM; in test [19], 8.7 nM; in [20] it was 4.6 nM. Moreover, the IC50 with NCI-H2228 was 95 nM; in the test on A549, more than 1000 nM; in the test on NCI-H460 it was more than 1000 nM. Moreover, the results for the Ratio IC50 in [9] and in [10] were 11 and 10, respectively. The Activity entry in the test on KARPAS-299 [11], with HCC78 [12] and in the test on KARPAS-299 [14] was “Dose-dependent effect” throughout. Also, in test [13], the inhibition entry was “Dose-dependent effect”. The outcome in the test on HCC78 [15] was Active. Also, the inhibition result in test [16] was “Active”.

Turning to `COc1cc(-c2nc(CN3CCN(C)CC3)cs2)ccc1Nc1ncc(Cl)c(Nc2ccccc2S(=O)(=O)C(C)C)n1`, the half-maximal inhibitory concentration (IC50) with KARPAS-299 [1] was 22 nM; in the test with HCC78 [2] it was 93 nM; in test [3], 2.3 nM; in [4], 9.8 nM; in test [5], 820 nM; in [17] it was more than 1000 nM. Further, the IC50 with NCI-H2228 is 98 nM; with A549, more than 1000 nM; with NCI-H460 it was 870 nM. Further, the “Ratio IC50” value in [21] and in test [22] was 2.3 each time.
